A word on the half-life: it is the time in which the quantity being followed falls by half. The low end stands for rapid decline, the high end for slow decline. The term CLint scaled denotes the capacity of the preparation to metabolise the compound, expressed as a volume cleared per time. As usually defined, the AUC(0-t) is the area under the concentration-time curve up to a stated or last time point. Higher therefore signals high exposure. One may read the CL/F as the apparent clearance, not corrected for the fraction that reaches the circulation.

Data set [1] can be described thus: Compound stability in human liver microsomes. Conditions: for half-life at 5 μM: human liver microsomes 0.5 mg protein/mL, compound 5 μM, NADPH 1.0 mM, 37° C.; for CLint scaled at 5 μM: human liver microsomes, in vivo CLint extrapolated. The data set is classed as in vitro ADME.
Data set [2] in a line: Compound stability in rat liver microsomes. The data set is classed as in vitro ADME. The following applies: pH 7.4; for half-life at 5 μM: rat liver microsomes 0.5 mg protein/mL, compound 5 μM, NADPH 1.0 mM, 37° C.; for CLint scaled at 5 μM: rat liver microsomes, in vivo CLint extrapolated.
Data set [3] can be described thus: Pharmacokinetics after intravenous and oral administration in rats. The data set is classed as in vivo, rat. Conditions: for bioavailability / AUC(0-t) / half-life / Vd: rat, plasma; for bioavailability: oral dose generally 5 or 10 mg/kg; for Vd: read-out: Vss.

Where two headings read alike, the source gives them in different places.

With `CC[C@H](Nc1ncnc(N)c1-c1noc(C)n1)c1nc2cccc(C)c2c(=O)n1-c1ccccc1C` [Ex. 15, (S)-2-(1-((6-amino-5-(5-methyl-1,2,4-oxadiazol-3-yl)pyrimidin-4-yl)amino)-propyl)-5-methyl-3-(o-tolyl)quinazolin-4(3H)-one], in data set [1], the half-life at 5 μM stood at 12.6 min and the CLint scaled at 5 μM is 138 mL/min/kg. Besides, in data set [2], the half-life at 5 μM is 4.84 min and the CLint scaled at 5 μM was 513 mL/min/kg. In data set [3] (iv dosing, dose 1 mg/kg), the “clearance (CL)” value stood at 74.2 mL/min/kg, the AUC(0-t) amounted to 223 ng·h/mL, the half-life is 69.6 min and the Vd was found to be 7.41 L/kg. Also, the bioavailability in data set [3] (iv dose 1 mg/kg) worked out at 36.4%.
Consider `CC[C@H](Nc1ncnc(N)c1-c1noc(C)n1)c1nc2ccccc2c(=O)n1-c1ccccc1F`, for which, in data set [1], the half-life at 5 μM is 11 min and the CLint scaled at 5 μM is 227 mL/min/kg. Besides, in data set [2], the half-life at 5 μM turned out to be 2.69 min and the CLint scaled at 5 μM was 923 mL/min/kg. In addition, in data set [3] (iv dosing, dose 1 mg/kg), the CL/F came to 118 mL/min/kg, the AUC(0-t) is 143 ng·h/mL, the half-life was 63 min and the Vd came to 7.21 L/kg. For the same compound, the bioavailability in data set [3] (iv dose 1 mg/kg) worked out at 8.88%.
`CC[C@H](Nc1ncnc(N)c1-c1nnn(C)n1)c1nc2cccc(Cl)c2c(=O)n1C1CC1` [Ex. 54, (S)-2-(1-((6-amino-5-(2-methyl-2H-tetrazol-5-yl)pyrimidin-4-yl)amino)-propyl)-5-chloro-3-cyclopropylquinazolin-4(3H)-one]: in data set [1], the half-life at 5 μM worked out at 42.8 min and the CLint scaled at 5 μM was 40.6 mL/min/kg. Besides, in data set [2], the half-life at 5 μM came to 99.1 min and the CLint scaled at 5 μM was 25.1 mL/min/kg.
Consider `CC[C@H](Nc1ncnc(N)c1C1=N[C@@H](C)CO1)c1nc2cccc(Cl)c2c(=O)n1C1CC1` [Ex. 5, 2-((S)-1-((6-amino-5-((S)-4-methyl-4,5-dihydrooxazol-2-yl)pyrimidin-4-yl)amino)propyl)-5-chloro-3-cyclopropylquinazolin-4(3H)-one], for which, in data set [1], the half-life at 5 μM stood at 5.52 min and the CLint scaled at 5 μM is 315 mL/min/kg. Moreover, in data set [2], the half-life at 5 μM was 5.98 min and the CLint scaled at 5 μM was 416 mL/min/kg. Further, in data set [3] (iv dosing, dose 1 mg/kg), the “clearance (CL)” value is 59.5 mL/min/kg, the AUC(0-t) is 276 ng·h/mL, the half-life was 91.2 min and the Vd is 11.9 L/kg. In data set [3] (iv dose 1 mg/kg), the bioavailability amounted to 30.4%.
With `CC[C@@H](Nc1ncnc(N)c1-c1ccon1)c1nc2cccc(Cl)c2c(=O)n1C1CC1` [Ex. 49, (R)-2-(1-((6-amino-5-(isoxazol-3-yl)pyrimidin-4-yl)amino)propyl)-5-chloro-3-cyclopropylquinazolin-4(3H)-one], in data set [1], the half-life at 5 μM was determined as 43.8 min and the CLint scaled at 5 μM was 39.7 mL/min/kg. In data set [2], the half-life at 5 μM was 2.43 min and the CLint scaled at 5 μM was 1020 mL/min/kg. Moreover, in data set [3] (iv dosing, dose 1 mg/kg), the “clearance (CL)” value worked out at 85.3 mL/min/kg, the AUC(0-t) is 196 ng·h/mL, the half-life is 39.6 min and the Vd amounted to 4.1 L/kg. For the same compound, the bioavailability in data set [3] (iv dose 1 mg/kg) came to 4.37%.
For `CC[C@H](Nc1ncnc(N)c1-c1ccon1)c1nc2cccc(C)c2c(=O)n1C1CC1` [Ex. 47, (S)-2-(1-((6-amino-5-(isoxazol-3-yl)pyrimidin-4-yl)amino)propyl)-3-cyclopropyl-5-methylquinazolin-4(3H)-one], in data set [1], the half-life at 5 μM amounted to 27.1 min and the CLint scaled at 5 μM was 91.6 mL/min/kg. Moreover, in data set [2], the half-life at 5 μM came out at 7.63 min and the CLint scaled at 5 μM was 325 mL/min/kg. For the same compound, in data set [3] (iv dosing, dose 1 mg/kg), the “clearance (CL)” value was 6100 mL/min/kg, the AUC(0-t) was 271 ng·h/mL, the half-life is 56.4 min and the Vd is 3.16 L/kg. In addition, the bioavailability in data set [3] (iv dose 1 mg/kg) is 23.6%.
Regarding `CC[C@H](Nc1ncnc(N)c1-c1ccon1)c1nc2cccc(F)c2c(=O)n1C1CC1` [Ex. 48, (S)-2-(1-((6-amino-5-(isoxazol-3-yl)pyrimidin-4-yl)amino)propyl)-3-cyclopropyl-5-fluoroquinazolin-4(3H)-one], in data set [1], the half-life at 5 μM is 136 min and the intrinsic clearance (CLint scaled) at 5 μM was 12.8 mL/min/kg. In data set [2], the half-life at 5 μM was found to be 27 min and the CLint scaled at 5 μM is 91.8 mL/min/kg. In addition, in data set [3] (iv dosing, dose 1 mg/kg), the “clearance (CL)” value came out at 67.3 mL/min/kg, the AUC(0-t) is 254 ng·h/mL, the half-life is 40.8 min and the Vd is 2.42 L/kg. Moreover, the bioavailability in data set [3] (iv dose 1 mg/kg) was found to be 32.7%.
As to `CC[C@H](Nc1ncnc(N)c1-c1ncn(C)n1)c1nc2cccc(Cl)c2c(=O)n1-c1ccc(F)cc1` [Ex. 50, (S)-2-(1-((6-amino-5-(1-methyl-1H-1,2,4-triazol-3-yl)pyrimidin-4-yl)amino)propyl)-5-chloro-3-(4-fluorophenyl)quinazolin-4(3H)-one], in data set [1], the half-life at 5 μM was found to be 11.4 min and the CLint scaled at 5 μM is 152 mL/min/kg. Moreover, in data set [2], the half-life at 5 μM worked out at 13.3 min and the CLint scaled at 5 μM was 186 mL/min/kg. For the same compound, in data set [3] (iv dosing, dose 1 mg/kg), the “clearance (CL)” value was 86.7 mL/min/kg, the AUC(0-t) was 192 ng·h/mL, the half-life was 68.4 min and the Vd stood at 3.96 L/kg. In addition, the bioavailability in data set [3] (iv dose 1 mg/kg) is 28.3%.
For the compound `CC[C@H](Nc1ncnc(N)c1-c1nc(C)co1)c1nc2cccc(Cl)c2c(=O)n1C1CC1` [Ex. 52, (S)-2-(1-((6-amino-5-(4-methyloxazol-2-yl)pyrimidin-4-yl)amino)propyl)-5-chloro-3-cyclopropylquinazolin-4(3H)-one], in data set [1], the half-life at 5 μM stood at 7.72 min and the CLint scaled at 5 μM is 322 mL/min/kg. In data set [2], the half-life at 5 μM was determined as 6.71 min and the CLint scaled at 5 μM is 370 mL/min/kg. In data set [3] (iv dosing, dose 1 mg/kg), the “clearance (CL)” value was found to be 85.7 mL/min/kg, the AUC(0-t) turned out to be 194 ng·h/mL, the half-life was 73.2 min and the Vd is 6.07 L/kg. In addition, the bioavailability in data set [3] (iv dose 1 mg/kg) was 21.3%.
On to `CC[C@H](Nc1ncnc(N)c1-c1ncc(C)o1)c1nc2cccc(C)c2c(=O)n1-c1ccccc1C` [Ex. 28, (S)-2-(1-((6-amino-5-(5-methyloxazol-2-yl)pyrimidin-4-yl)amino)propyl)-5-methyl-3-(o-tolyl)quinazolin-4(3H)-one], for which, in data set [1], the half-life at 5 μM worked out at 8.69 min and the intrinsic metabolic clearance (CLint scaled) at 5 μM is 286 mL/min/kg. Besides, in data set [2], the half-life at 5 μM is 5.12 min and the CLint scaled at 5 μM is 485 mL/min/kg. Further, in data set [3] (iv dosing, dose 1 mg/kg), the “clearance (CL)” value was found to be 61.2 mL/min/kg, the AUC(0-t) came to 265 ng·h/mL, the half-life was 265 min and the Vd came to 8.92 L/kg. Further, the bioavailability in data set [3] (iv dose 1 mg/kg) stood at 7.67%.
`CC[C@H](Nc1ncnc(N)c1-c1nc(C(N)=O)n(C)n1)c1nc2cccc(Cl)c2c(=O)n1C1CC1` [Ex. 58, (S)-3-(4-amino-6-((1-(5-chloro-3-cyclopropyl-4-oxo-3,4-dihydroquinazolin-2-yl)propyl)amino)pyrimidin-5-yl)-1-methyl-1H-1,2,4-triazole-5-carboxamide]: in data set [1], the half-life at 5 μM is 61.8 min and the CLint scaled at 5 μM was 28.1 mL/min/kg. For the same compound, in data set [2], the half-life at 5 μM amounted to 122 min and the CLint scaled at 5 μM was 20.4 mL/min/kg. Further, in data set [3] (iv dosing, dose 1 mg/kg), the “clearance (CL)” value amounted to 26.2 mL/min/kg, the AUC(0-t) was determined as 580 ng·h/mL, the half-life is 143 min and the Vd stood at 5.03 L/kg. Besides, the bioavailability in data set [3] (iv dose 1 mg/kg) came to 106%.
As to `CC[C@H](Nc1ncnc(N)c1-c1noc(C)n1)c1nc2cccc(F)c2c(=O)n1C1CC1` [Ex. 16, (S)-2-(1-((6-amino-5-(5-methyl-1,2,4-oxadiazol-3-yl)pyrimidin-4-yl)amino)-propyl)-3-cyclopropyl-5-fluoroquinazolin-4(3H)-one], in data set [1], the half-life at 5 μM is 22.9 min and the CLint scaled at 5 μM is 108 mL/min/kg. In addition, in data set [2], the half-life at 5 μM is 19.7 min and the CLint scaled at 5 μM is 126 mL/min/kg. For the same compound, in data set [3] (iv dosing, dose 1 mg/kg), the “clearance (CL)” value came out at 68.7 mL/min/kg, the AUC(0-t) amounted to 249 ng·h/mL, the half-life was 45.6 min and the Vd worked out at 4.3 L/kg. In addition, the bioavailability in data set [3] (iv dose 1 mg/kg) was 18.3%.
As to `CC[C@H](Nc1ncnc(N)c1-c1nnc(C)o1)c1nc2ccccc2c(=O)n1-c1ccccc1F` [Ex. 24, (S)-2-(1-((6-amino-5-(5-methyl-1,3,4-oxadiazol-2-yl)pyrimidin-4-yl)amino)-propyl)-3-(2-fluorophenyl)quinazolin-4(3H)-one], in data set [1], the half-life at 5 μM came to 17.1 min and the CLint scaled at 5 μM was 146 mL/min/kg. In data set [2], the half-life at 5 μM turned out to be 5.42 min and the CLint scaled at 5 μM was 458 mL/min/kg. In data set [3] (iv dosing, dose 0.48 mg/kg), the “clearance (CL)” value was 70.5 mL/min/kg, the AUC(0-t) came to 121 ng·h/mL, the half-life was 30.6 min and the Vd was 2.31 L/kg. The bioavailability in data set [3] (iv dose 0.48 mg/kg) turned out to be 69.1%.
For `CC[C@H](Nc1ncnc(N)c1-c1nnn(C)n1)c1nc2cccc(Cl)c2c(=O)n1-c1cccc(F)c1` [Ex. 36, (S)-2-(1-((6-amino-5-(2-methyl-2H-tetrazol-5-yl)pyrimidin-4-yl)amino)propyl)-5-chloro-3-(3-fluorophenyl)quinazolin-4(3H)-one], in data set [1], the half-life at 5 μM was 14.3 min and the CLint scaled at 5 μM was 122 mL/min/kg. Also, in data set [2], the half-life at 5 μM came out at 14.6 min and the CLint scaled at 5 μM is 170 mL/min/kg.
For `CC[C@H](Nc1ncnc(N)c1-c1nnn(C)n1)c1nc2cccc(F)c2c(=O)n1-c1ccccc1` [Ex. 43, (S)-2-(1-((6-amino-5-(2-methyl-2H-tetrazol-5-yl)pyrimidin-4-yl)amino)-propyl)-5-fluoro-3-phenylquinazolin-4(3H)-one], in data set [1], the half-life at 5 μM came to 7.12 min and the CLint scaled at 5 μM was 244 mL/min/kg. Moreover, in data set [2], the half-life at 5 μM stood at 7.15 min and the CLint scaled at 5 μM is 347 mL/min/kg. In data set [3] (iv dosing, dose 1 mg/kg), the “clearance (CL)” value stood at 36.8 mL/min/kg, the AUC(0-t) turned out to be 452 ng·h/mL, the half-life was 91.2 min and the Vd is 3.41 L/kg. For the same compound, the bioavailability in data set [3] (iv dose 1 mg/kg) was 90%.

These data come from US9670194B2 (Calitor Sciences, LLC, priority 2013, dated 2017).
